# Assay results from US11559490B2, “Pharmaceutical formulation” (Merck Patent GmbH, priority 2017, dated 2023).
# Legend:
# [1] = molecular target: DNA-dependent protein kinase (DNA-PK) (Homo sapiens, UniProt P78527); details: cited from earlier work
# [2] = system: DNA-PK autophosphorylation in cancer cell lines; details: cited from earlier work
# A549 = details: 150 mg/kg oral, 10 min prior to each 2 Gy fraction, 5 days (10 Gy)
# Procedure: (§1) The therapeutic relevance of DNA-PK inhibition by the drug substance as such was investigated in vivo in combination with ionizing radiation (IR), a clinically established DSB-inducing treatment. The drug substance was tested for activity in six xenograft mouse models of human cancer. The models were chosen from different cancer indications (colon, lung, head and neck, pancreatic), and histological subtypes (adeno, squamous, large cell). Ionizing radiation was administered using a fractionated schedule of 2 Gy per day administered over five consecutive days (total radiation dose=10 Gy). […] 10 min prior to each fraction of radiation (ONC397-1-2AZ, ONC397-1-3AZ, ONC397-1-4AZ, ONC397-1-5AZ, ONC397-1-8AZ).
# (§2) The radiotherapy enhancing effect was quantified across the tested models by the time to reaching 400% initial volume for the 150 mg/kg study arms. The resulting Kaplan-Meier plots were compared by the log-rank test.
# HCT116 = details: 150 mg/kg oral, 10 min prior to each 2 Gy fraction, 5 days (10 Gy)
# Procedure: as §1, §2
# NCI-H460 = details: 150 mg/kg oral, 10 min prior to each 2 Gy fraction, 5 days (10 Gy)
# Procedure: as §1, §2
# [3] = system: six xenograft mouse models of human cancer; assay: Xenograft mouse models of human cancer, combination with ionizing radiation; type: in vivo; details: all models, oral administration with fractionated radiation 2 Gy x 5
# Procedure: as §1, §2
# [4] = Solubility of drug substance in water and simulated gastric fluids; type: physicochemical
smiles,measurement,setting,value
"COc1ccc([C@@H](O)c2cc(-c3ncnc4cc(N5CCOCC5)ccc34)c(F)cc2Cl)nn1 [drug substance, (S)-[2-chloro-4-fluoro-5-(7-morpholin-4-yl-quinazolin-4-yl)phenyl]-(6-methoxy-pyridazin-3-yl)methanol]",inhibition of DNA-PK activity,[1],potent and selective inhibitor
same,inhibition of DNA-PK autophosphorylation,[2],potent inhibition
same,enhancement ratio (time to reaching 400% initial volume),A549,1.5
same,enhancement ratio (time to reaching 400% initial volume),HCT116,1.5
same,enhancement ratio (time to reaching 400% initial volume),NCI-H460,2.6
same,enhancement of the radiation effect,[3],strong enhancement of the radiation effect
same,solubility in water and simulated gastric fluids,[4],poor solubility
